Patent publication US11306100B2, “Spirooxindole compounds as GSK3B inhibitors and process for preparation thereof” (COUNCIL OF SCIENTIFIC & INDUSTRIAL RESEARCH, priority 2017, dated 2022)

Columns and labels:
recombinant GSK3β = recombinant GSK3β (Homo sapiens, UniProt P49841); test: ADP-Glo kinase assay of GSK3β activity; format: biochemical; details: for IC50: GSK3β kinase activity
Procedure: Activity of recombinant GSK3β is measured using ADP-Glo Kinase assay according to supplier's standard protocol with minor modifications in 384 well format. Briefly, kinase reaction mixture was prepared by adding […] of recombinant enzyme, 2 μM ATP, 1 μg of enzyme substrate along with test compound or DMSO to a final volume of 5 μl. The kinase reaction was performed by incubating the mixture at room temperature for 17 mins. To correct reaction back ground a substrate blank reaction was also performed. ADP glow reagent (equal volume to reaction mixture) was added to the reaction mixture to deplete any unused ATP added to the kinase reaction and incubated at further 40 min at 27° C. Then 10 μl of kinase detection reagent was added followed by incubation for 30 min at 27° C. to convert ADP to ATP and introduce luciferase to measure kinase activity. The luminescence was measured using luminometer (Perkin Elmer) which is directly proportional to ADP generated in kinase reaction. To determine the amount of ADP produced in kinase reaction and calculate specific activity of the enzyme, a conversion curve is prepared by serial dilution of ADP and ATP mixture. Specific activity of the GSK3β was calculated using the following equation. (ADP(kinase reaction)−ADP(substrate blank)) in mmol)/(Reaction time in min)×(GSK3β in mg).

PANC-1 cells [1] = test: Cell viability, Sulforhodamine B assay; format: cell-based
Procedure: Cell viability was measured using Sulforhodamine B assay. The cytotoxic effect of the compounds with GSK3β inhibitory potential was tested against PANC-1 cells. Initially, the PANC-1 cells were seeded in flat bottom 96-well plate (5000 cells/100 μL) in complete medium and cultured for 18 hrs under standard conditions. After 18 h the cells were treated with either the different concentration of compounds, standard drugs or DMSO as solvent control. The final DMSO concentration to cells was maintained <2% in all cytotoxic assays. Each compound was tested in triplicate and the cytotoxicity was determined as the average of that triplicate. Further, the plates were incubated for another 48 h in an incubator maintained at 37° C. with a constant supply of 5% CO2. The cells were fixed using 10% TCA and incubated for 1 h at 4° C. Then the plates were rinsed carefully with MQ water and air dried at room temperature. To all the wells of MTP plate 0.057% SRB solution was added and kept for approximately 30 min before it was rinsed off using 1% acetic acid. The plates were then air dried and 100 μL of 10 mM tris base was added to each well to solubilize the SRB before absorbance was measured at 510 nm. The measure of absorbance is directly proportional to cell growth and is thus used to calculate % reduction in the rate of cell proliferation according to control DMSO treated cells. All experiments were performed in triplicates; mean % age proliferation values with ±SD were plotted here.

[2] = tested on: cellular GSK3β signalling in PANC-1 cells; test: Western blot of GSK3β signalling and NFkB target proteins in PANC-1 cells; format: cell-based
Procedure: The compounds inhibiting GSK3β activity in-vitro added to PANC-1 cells to determine their potential against intracellular GSK3β signalling pathways in cancer cells. Briefly, PANC-1 cells were plated in 60 mm plates (100,000 cells/4 mL) and cultured in the standard DMEM medium containing 10% serum. After culturing for 18 hrs, different concentrations of test compounds or standard controls prepared in DMSO were added to culture media to achieve final concentration 0 to 100 μM of compound to cells. Cells were further continued to grow for 48 h with constant supply of 5% CO2 in humid incubator. The time course (0 to 48 h) experiment was carried out simultaneously with fixed concentration of compound showing 50% growth inhibition. At the end of the experiments, all cells were scraped directly in cold PBS and washed for 3 times before lysis directly in 2D lysis buffer (8M urea, 2M thiourea, 4% CHAPS, 4 mM tris base and 65 mM DTT) for isolation of proteins to perform western blots. The protein concentration was determined by modified Bradford assay.
To perform western blot, protein extracts were separated on 12% SDS-PAGE and electrophoretically (1 mA/cm^2 membrane for 1 hr) transferred onto the nitrocellulose membrane by semi-dry method. After protein transfer, membrane was stained with Ponceau S solution (0.2% Ponceau S in 3% Trichloroacetic acid) for 2 min to see efficiency of electrophoretic transfer. The membrane was destained in ddH2O to visualize the protein bands and further destained with TBST (20 mM Tris, 138 mM NaCl, pH 7.6 and 0.1% Tween 20) for blotting. To avoid non-specific detection of target proteins, blotted membranes were blocked with BSA (3% BSA in TBST solution). All antibodies against specific protein targets of interest were purchased from Cell Signaling Technology, USA if not mentioned specifically. Then the blots were incubated with antibodies prepared in blocking buffer (1:1000 Antibody to blocking buffer dilution) for 18 h with constant shaking at 4° C. Three washing steps in PBS each for 5 mins removed the excess and non-specific antibodies. For visualization, blots were incubated with secondary antibody conjugated to either horseradish peroxidase or alkaline phosphatase [anti-(mouse IgG) or anti-(rabbit IgG), diluted 1:5000 in TBST] for 1 h at room temperature. After three washes in PBS, the reaction was developed either by addition of LumiGLO substrate (Cell Signaling Technology) followed by capturing on X-ray film or addition of chromogenic NBT (nitro-blue tetrazolium chloride) and BCIP (5-bromo-4-chloro-3′-indolyphosphate p-toluidine salt) substrate for alkaline phosphatase developing purple colored bands. The blots were scanned for densitometry performed using Image-J program.

PANC-1 cells [3] = test: Colony formation (soft agar, clonogenic) assay; format: cell-based; details: TRAIL alone, 10 ηg/mL
Procedure: To determine the efficiency of GSK3β inhibitors in combination with the TRIAL on anchorage independent growth of PANC-1 cells soft agar assay were performed. The base agar (0.5%) was prepared by mixing equal amounts of 1% agar with 2× media (20% FBS and 2× antibiotics) filled in 6-well plate. Simultaneously, PANC-1 cells (14000/well) mixed with 2× media containing different concentrations of identified compounds alone or in combination with TRAIL mixed with 0.7% of sterile agar to achieve final concentration of […] top agar. The cell suspension was spread on solidified base agar. Then the plates were incubated in CO2 incubator for 14 days and the cells were fed with fresh media containing respective concentration and combination of TRIAL every 3 days. Upon termination (after 14 days of incubation) plates were stained with 0.005% of crystal violet for 1 h and excess stain was removed by washing with MQ. The number of blue colonies were counted using olympus Xi71 microscope.

recombinant GSK3β, sequence (P49841 whole entry): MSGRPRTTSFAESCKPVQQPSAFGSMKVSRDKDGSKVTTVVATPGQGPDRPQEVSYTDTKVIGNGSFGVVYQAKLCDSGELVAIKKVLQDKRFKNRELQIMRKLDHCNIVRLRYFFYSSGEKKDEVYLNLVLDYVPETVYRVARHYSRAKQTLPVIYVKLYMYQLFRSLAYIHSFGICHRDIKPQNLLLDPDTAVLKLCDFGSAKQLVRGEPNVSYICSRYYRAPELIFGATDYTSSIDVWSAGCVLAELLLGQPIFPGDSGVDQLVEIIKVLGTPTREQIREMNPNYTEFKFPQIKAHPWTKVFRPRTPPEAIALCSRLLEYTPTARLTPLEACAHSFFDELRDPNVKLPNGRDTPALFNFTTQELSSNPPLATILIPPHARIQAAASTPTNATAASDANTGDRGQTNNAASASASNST

| Molecule | melting point [°C] | IC50 (recombinant GSK3β; 2 μM ATP) [µM] | further results |
| --- | --- | --- | --- |
| O=C1Nc2ccccc2C12COC(CI)C2 (stereo not shown) [6a, 5-(Iodomethyl)-4,5-dihydro-2H-spiro[furan-3,3′-indolin]-2′-one] | 170.6 |  |  |
| O=C1Nc2ccccc2C12COC(Cn1cc(-c3ccccc3)nn1)C2 (stereo not shown) [AB-C, 5-((4-Phenyl-1H-1,2,3-triazol-1-yl)methyl)-4,5-dihydro-2H-spiro[furan-3,3′-indolin]-2′-one] | 175 to 177 | 3.59 ± 0.98 | inhibition of GSK3β in in-vitro kinase assays (recombinant GSK3β): potent inhibition; effectiveness against cell growth (PANC-1 cells [1]; FIG. 3B, low concentration of TRAIL (1 ηg/mL)): not effective compared to remaining compounds; effectiveness against cell growth / sensitisation to TRAIL (PANC-1 cells [1]; in combination with TRAIL (10 ηg/mL), FIG. 3A): less effective compared to other molecules; phosphorylation of GSK3β ([2]; PANC-1 cells treated with compound): significantly decreased; β-catenin level ([2]; PANC-1 cells versus control (DMSO)): accumulation of β-catenin |
| CC(C)(O)c1cn(CC2CC3(CO2)C(=O)Nc2ccccc23)nn1 (stereo not shown) [AB-E, 5-((4-(2-Hydroxypropan-2-yl)-1H-1,2,3-triazol-1-yl)methyl)-4,5-dihydro-2H-spiro[furan-3,3′-indolin]-2′-one] |  | 5.44 ± 1.49 |  |
| CCOC(=O)c1cn(CC2CC3(CO2)C(=O)Nc2ccccc23)nn1 (stereo not shown) [AB-F, Ethyl-1-((2′-oxo-4,5-dihydro-2H-spiro[furan-3,3′-indoline]-5-yl)methyl)-1H-1,2,3-triazole-4-carboxylate] | 133 to 134 | 4.68 ± 0.6 |  |
| O=C1Nc2ccccc2C12COC(CN1CCOCC1)C2 (stereo not shown) [AB-K, 5-(Morpholinomethyl)-4,5-dihydro-2H-spiro [furan-3, 3′-indolin]-2′-one] | 126 to 128 | 4.91 ± 0.56 |  |
| O=C1Nc2ccccc2C12COC(CN1CCSCC1)C2 (stereo not shown) [AB-L, 5-(Thiomorpholinomethyl)-4,5-dihydro-2H-spiro[furan-3,3′-indolin]-2′-one] |  | 4.06 ± 1.67 |  |
| COC(=O)c1ccc(-c2cc(Cl)ccc2OCc2cn(CC3CC4(CO3)C(=O)Nc3ccccc34)nn2)nc1C (stereo not shown) [AB-N, Methyl-6-(5-chloro-2-((1-((2′-oxo-4,5-dihydro-2H-spiro[furan-3,3′-indoline]-5-yl)methyl)-1H-1,2,3-triazol-4-yl)methoxy)phenyl)-2-methylnicotinate] | 120 to 122 |  |  |
| O=Cc1ccccc1OCc1cn(CC2CC3(CO2)C(=O)Nc2ccccc23)nn1 (stereo not shown) [AB-P, 2-((1-((2′-Oxo-4,5-dihydro-2H-spiro[furan-3,3′-indoline]-5-yl)methyl)-1H-1,2,3-triazol-4-yl)methoxy)benzaldehyde] |  | 4.93 ± 0.53 |  |
| O=C1Nc2ccccc2C12COC(CN1CCN(Cc3ccccc3)CC1)C2 (stereo not shown) [AB-R, 5-((4-Benzylpiperazin-1-yl)methyl)-4,5-dihydro-2H-spiro[furan-3,3′-indolin]-2′-one] | 141 to 143 |  |  |
| CCOC(=O)c1ccc(-c2cc(Cl)cc(Cl)c2OCc2cn(CC3CC4(CO3)C(=O)Nc3ccccc34)nn2)nc1C (stereo not shown) [AB-W, Ethyl6-(3,5-dichloro-2-((1-((2′-oxo-4,5-dihydro-2H-spiro[furan-3,3′-indoline]-5-yl)methyl)-1H-1,2,3-triazol-4-yl)methoxy)phenyl)-2-methylnicotinate] | 132 to 135 |  |  |
| O=C1Nc2ccccc2C12COC(CN1CCN(c3ccccc3)CC1)C2 (stereo not shown) [AB-X, 5-((4-Phenylpiperazin-1-yl)methyl)-4,5-dihydro-2H-spiro[furan-3,3′-indolin]-2′-one] | 130 to 132 |  |  |
| CC(=O)Nc1ccccc1 [Acetanilide, reference compound] |  | 6.53 ± 0.52 |  |
| [Cl-].[Li+] [Licl, LiCl, reference compound] |  |  | IC50 (recombinant GSK3β): 3990 µM |
| O=C1Cc2ccccc2N1 [Oxindole] |  | 6.46 ± 0.63 |  |
| Cc1ccc([N+](=O)[O-])cc1S(=O)(=O)N(C)/N=C/c1cnc2ccc(Br)cn12 [PIK-75, reference compound] |  |  | IC50 (recombinant GSK3β): 0.0176 µM |
| TRAIL: Tumor necrosis factor-related apoptosis-inducing ligand (TRAIL) (protein, UniProt P50591 1-281, looked up) Tumor necrosis factor ligand …: MAMMEVQGGPSLGQTCVLIVIFTVLLQSLCVAVTYVYFTNELKQMQDKYSKSGIACFLKEDDSYWDPNDEESMNSPCWQVKWQLRQLVRKMILRTSEETISTVQEKQQNISPLVRERGPQRVAAHITGTRGRSNTLSSPNSKNEKALGRKINSWESSRSGHSFLSNLHLRNGELVIHEKGFYYIYSQTYFRFQEEIKENTKNDKQMVQYIYKYTSYPDPILLMKSARNSCWSKDAEYGLYSIYQGGIFELKENDRIFVSVTNEHLIDMDHEASFFGAFLVG |  |  | cell death in PANC-1 cells (PANC-1 cells [1]; TRAIL alone (10 ηg/ml)): did not cause any significant cell death; inhibition of colony formation (PANC-1 cells [3]): did not show effective inhibition on colony formation |
